The source of these data is the supplement of paper PMC12137928.

Where a name gives a salt, the structure may show the parent alone. Where only a bound is given, the exact number is not on record here.

The assay has as its system HCT116. To be noted: 72 h. The essentials:
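In 1536-well plates, 250 HCT116 cells per well were seeded and left for 5 h to attach. Luminescence from CellTiter-Glo was set against vehicle (0%) and positive control (-100%), and pattern correction was applied. IC50 and maximal efficacy come from four-parameter Hill fitting.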

As to `CCCN1C[C@H](CSC)C[C@@H]2c3cccc4[nH]cc(c34)C[C@H]21` [Pergolide methanesulfonate], the IC50 cell viability by setting is: (ICRF193 0 nM) above 45.8 µM; (ICRF193 200 nM) above 45.8 µM.
As for `CCC[C@H](N[C@@H](C)C(=O)N1[C@H](C(=O)O)C[C@@H]2CCCC[C@@H]21)C(=O)OCC` [Perindopril], the IC50 cell viability was above 45.8 µM (ICRF193 0 nM) and above 45.8 µM (ICRF193 200 nM).
Consider `OC(CN1CCCCC1)c1cc(-c2ccccc2)on1` (stereo unspecified) [Perisoxal citrate], for which the IC50 cell viability is above 45.8 µM (ICRF193 0 nM) and above 45.8 µM (ICRF193 200 nM).
Consider `CN1CCN(C2=Nc3ccccc3Cc3ccccc32)CC1` [Perlapine], for which the IC50 cell viability was above 45.8 µM (ICRF193 0 nM) and above 45.8 µM (ICRF193 200 nM).
`CCOc1ccc(/N=C(\C)Nc2ccc(OCC)cc2)cc1` [Phenacaine hydrochloride]: the IC50 cell viability was above 45.8 µM (ICRF193 0 nM) and above 45.8 µM (ICRF193 200 nM).
`NC(=O)NC(=O)Cc1ccccc1` [Phenacemide]: the IC50 cell viability by setting is: (ICRF193 0 nM) above 45.8 µM; (ICRF193 200 nM) above 45.8 µM.
With `CCOc1ccc(NC(C)=O)cc1` [Phenacetin], the IC50 cell viability by setting is: (ICRF193 0 nM) above 45.8 µM; (ICRF193 200 nM) above 45.8 µM.
For `Nc1ccc(/N=N/c2ccccc2)c(N)n1` [Phenazopyridine hydrochloride], the IC50 cell viability is above 45.8 µM (ICRF193 0 nM) and above 45.8 µM (ICRF193 200 nM).
With `NNCCc1ccccc1` [Phenelzine], the IC50 cell viability runs as follows: (ICRF193 0 nM) above 45.8 µM; (ICRF193 200 nM) above 45.8 µM.
Turning to `CC(Oc1ccccc1)C(=O)N[C@@H]1C(=O)N2[C@@H]1SC(C)(C)[C@@H]2C(=O)O` (stereo partly specified) [Phenethicillin potassium salt], the IC50 cell viability is, setting by setting: (ICRF193 0 nM) above 45.8 µM; (ICRF193 200 nM) above 45.8 µM.
In the case of `O=C1c2ccccc2C(=O)C1c1ccccc1` [Phenindione], the IC50 cell viability runs as follows: (ICRF193 0 nM) above 45.8 µM; (ICRF193 200 nM) above 45.8 µM.
Regarding `CN(C)CCC(c1ccccc1)c1ccccn1` (stereo unspecified) [Pheniramine maleate], the IC50 cell viability by setting is: (ICRF193 0 nM) above 45.8 µM; (ICRF193 200 nM) above 45.8 µM.
Molecule `O=S1(=O)OC(c2ccc(O)cc2)(c2ccc(O)cc2)c2ccccc21` [Phenol red] came in with an IC50 cell viability (ICRF193 0 nM) above 45.8 µM and an IC50 cell viability (ICRF193 200 nM) above 45.8 µM.
With `Oc1ccccc1` [Phenol], the IC50 cell viability was above 45.8 µM (ICRF193 0 nM) and above 45.8 µM (ICRF193 200 nM).
As for `O=C1OC(c2ccc(O)cc2)(c2ccc(O)cc2)c2ccccc21` [Phenolphthalein], the IC50 cell viability is, setting by setting: (ICRF193 0 nM) above 45.8 µM; (ICRF193 200 nM) above 45.8 µM.
For `O=C(O)c1ccccc1C(c1ccc(O)cc1)c1ccc(O)cc1` [Phenolphthalin], the IC50 cell viability is, setting by setting: (ICRF193 0 nM) above 45.8 µM; (ICRF193 200 nM) above 45.8 µM.
For the molecule `c1ccc2c(c1)Nc1ccccc1S2` [Phenothiazine], the IC50 cell viability is, setting by setting: (ICRF193 0 nM) above 45.8 µM; (ICRF193 200 nM) above 45.8 µM.
Consider `CC(C)=CC1C(C(=O)OCc2cccc(Oc3ccccc3)c2)C1(C)C` (stereo unspecified) [Phenothrin], for which the IC50 cell viability was above 45.8 µM (ICRF193 0 nM) and above 45.8 µM (ICRF193 200 nM).
Consider `O=C(O)COc1ccccc1` [Phenoxyacetic acid], for which the IC50 cell viability is above 45.8 µM (ICRF193 0 nM) and above 45.8 µM (ICRF193 200 nM).
For the molecule `CC(COc1ccccc1)N(CCCl)Cc1ccccc1` (stereo unspecified) [Phenoxybenzamine hydrochloride], the IC50 cell viability is above 45.8 µM (ICRF193 0 nM) and above 45.8 µM (ICRF193 200 nM).
`NC(=O)OCCCc1ccccc1` [Phenprobamate] came in with an IC50 cell viability (ICRF193 0 nM) above 45.8 µM and an IC50 cell viability (ICRF193 200 nM) above 45.8 µM.
With `CCC(c1ccccc1)c1c(O)c2ccccc2oc1=O` (stereo unspecified) [Phenprocoumon], the IC50 cell viability reads like this: (ICRF193 0 nM) above 45.8 µM; (ICRF193 200 nM) above 45.8 µM.
In the case of `CN1C(=O)CC(c2ccccc2)C1=O` (stereo unspecified) [Phensuximide], the IC50 cell viability is, setting by setting: (ICRF193 0 nM) above 45.8 µM; (ICRF193 200 nM) above 45.8 µM.
Turning to `Cc1ccc(N(CC2=NCCN2)c2cccc(O)c2)cc1` [Phentolamine mesilate], the IC50 cell viability reads like this: (ICRF193 0 nM) above 45.8 µM; (ICRF193 200 nM) above 45.8 µM.
Take `Nc1ccc(C(=O)Oc2ccccc2)c(O)c1` [Phenyl 4-aminosalicylate]: the IC50 cell viability by setting is: (ICRF193 0 nM) above 45.8 µM; (ICRF193 200 nM) above 45.8 µM.
In the case of `O=C(CCCCCCCCC#CI)Oc1ccccc1` [Phenyl 11-iodo-10-undecynoate], the IC50 cell viability is above 45.8 µM (ICRF193 0 nM) and above 45.8 µM (ICRF193 200 nM).
Take `O=C(Oc1ccccc1)c1ccccc1O` [Phenyl salicylate]: the IC50 cell viability runs as follows: (ICRF193 0 nM) above 45.8 µM; (ICRF193 200 nM) above 45.8 µM.
Take `O=C(O)Cc1ccccc1` [Phenylacetic acid]: the IC50 cell viability runs as follows: (ICRF193 0 nM) above 45.8 µM; (ICRF193 200 nM) above 45.8 µM.
